According to patent publication US20180371551A1, “MAT2A INHIBITORS FOR TREATING MTAP NULL CANCER” (Agios Pharmaceuticals, Inc., priority 2015, published 2018):

Experiments:
[1] = tested on: PRMT5-dependent di-methylarginine marks in HCT116 isogenic pair; assay: Immunoblot of PRMT5-dependent di-methylarginine marks; format: cell-based; conditions: MTAP−/− and wt HCT116 cells, 5 days
Text: (§1) FIGS. 2A-F. PRMT5 is selectively essential in MTAP-null cells upon genetic ablation but not pharmacologic targeting. Immunoblot analysis of the indicated proteins in HCT116 MTAP^−/− and HCT116 MTAP wt cells stably expressing PRMT5 shRNA and p-LVX empty vector control (EV). (B) PRMT5 is selectively essential in MTAP-null cells in vitro. Percent growth of HCT116 wt and HCT116 MTAP^−/− cells upon PRMT5 knockdown (+dox), with or without PRMT5 wt or R368A mutant rescue, versus no knockdown (no dox) control in a 10-day soft agar colony growth assay. Colonies were stained with crystal violet and then quantified using Li-Cor (mean±SD, n=3). (C) Immunoblot analysis of the indicated proteins in HCT116 MTAP^−/− and HCT116 MTAP wt cells stably expressing PRMT5 shRNA and shRNA-resistant PRMT5 wt cDNA or PRMT5 R368A catalytically-dead mutant cDNA. (D) Immunoblot analysis of symmetric di-methylarginine marks in HCT116 MTAP^−/− and HCT116 MTAP wt cells stably expressing PRMT5 shRNA and p-LVX empty vector control (EV), or PRMT5 shRNA and shRNA-resistant PRMT5 wt cDNA or PRMT5 R368A catalytically-dead mutant cDNA. (E) Dose response analysis with EPZ015666 titrated from 20 μM top dose in HCT116 MTAP wt vs. HCT116 MTAP^−/− cells. Cells were treated with EPZ015666 for 5 days and their response to the compound is measured as fold growth of treated cells vs. untreated control (mean±SD, n=3). […]

[2] = tested on: HCT116 MTAP wt vs. HCT116 MTAP−/− cells; assay: EPZ015666 dose response, growth of HCT116 isogenic pair; format: cell-based; conditions: 5 days, titrated from 20 μM top dose
Text: as §1

[3] = molecular target: T1, PRMT5 (Homo sapiens, UniProt O14744); assay: N-methyltransferase in vitro activity assay; format: biochemical
T1 construct: purchased Eurofins CEREP Panlabs
Description: MTA has been reported to inhibit activity of protein methyltransferases (Enouf et al., 1979). To test this notion directly, we performed an in vitro biochemical screen assessing enzyme activity of 33 different N-methyltransferases following treatment with 10 μM and 100 μM MTA (FIG. 4A). […] Next, we analyzed the MTA Ki for PRMT5, PRMT4, and a diverse subset of methyltransferases (FIG. 4C). In vitro screening of methyltransferase inhibition by MTA, as well as SAM Km measurements, was conducted using a panel of methyltransferase assays at Eurofins CEREP Panlabs.

T1 sequence (O14744 whole entry): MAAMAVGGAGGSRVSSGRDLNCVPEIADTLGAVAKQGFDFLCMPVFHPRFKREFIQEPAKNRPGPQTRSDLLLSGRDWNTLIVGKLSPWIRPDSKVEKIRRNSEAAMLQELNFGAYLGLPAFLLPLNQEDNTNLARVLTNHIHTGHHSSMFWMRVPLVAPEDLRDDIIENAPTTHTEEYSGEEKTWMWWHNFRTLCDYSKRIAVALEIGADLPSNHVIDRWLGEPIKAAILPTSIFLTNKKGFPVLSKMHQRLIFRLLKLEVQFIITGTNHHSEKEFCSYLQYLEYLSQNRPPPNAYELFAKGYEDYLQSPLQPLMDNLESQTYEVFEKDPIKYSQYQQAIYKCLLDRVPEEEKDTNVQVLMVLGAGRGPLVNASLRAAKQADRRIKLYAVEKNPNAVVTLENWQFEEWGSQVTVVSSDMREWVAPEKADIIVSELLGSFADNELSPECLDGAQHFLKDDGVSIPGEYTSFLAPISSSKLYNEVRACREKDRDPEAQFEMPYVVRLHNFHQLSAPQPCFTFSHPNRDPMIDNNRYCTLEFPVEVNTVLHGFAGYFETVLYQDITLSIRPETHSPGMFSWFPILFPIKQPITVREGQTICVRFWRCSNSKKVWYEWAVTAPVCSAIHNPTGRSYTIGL
T1 sequence (Q9BQA1 whole entry partner): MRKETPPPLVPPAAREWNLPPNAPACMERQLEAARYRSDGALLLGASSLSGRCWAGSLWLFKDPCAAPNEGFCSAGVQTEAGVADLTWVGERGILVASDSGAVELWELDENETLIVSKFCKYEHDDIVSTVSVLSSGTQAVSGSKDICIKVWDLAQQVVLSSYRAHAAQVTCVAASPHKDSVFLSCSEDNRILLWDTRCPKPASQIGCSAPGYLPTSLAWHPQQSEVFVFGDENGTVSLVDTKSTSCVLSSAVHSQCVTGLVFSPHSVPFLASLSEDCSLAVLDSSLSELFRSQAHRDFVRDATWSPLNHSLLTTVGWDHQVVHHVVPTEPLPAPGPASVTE

**Q.** Which “PRMT5 activity inhibition (PRMT5-dependent di-methylarginine marks in total cell lysates)” value [1] does the source give for `O=C(NC[C@H](O)CN1CCc2ccccc2C1)c1cc(NC2COC2)ncn1` [EPZ015666] here?
**A.** equal degree of PRMT5 activity inhibition

**Q.** And the “MTAP selectivity of growth inhibition” value [2]?
**A.** not selective for the MTAP-deficient genetic background

**Q.** What about the “MTAP selectivity of growth inhibition” value ([2]; listed as EPZ-015666) of the same molecule?
**A.** did not lead to selective growth inhibition in MTAP-null cells

**Q.** With `CSC[C@H]1O[C@@H](n2cnc3c(N)ncnc32)[C@H](O)[C@@H]1O` [MTA, methylthioadenosine] as the molecule, how does the IC50 ([3]; biochemical assay, read-out: PRMT5 IC50 for MTA) read?
**A.** 3 µM

**Q.** And the Ki ([3]; read-out: MTA Ki for PRMT5)?
**A.** 0.46 µM
